“And” between values parts separate entries of the source, which are not always exact repeats. Equal entries are not always repeated. Where two headings read alike, the source gives them in different places.
Experiments:
[1] = target: T1, HNE (human neutrophil elastase) (Homo sapiens, UniProt P08246); assay: HNE inhibition assay (fluorogenic substrate cleavage); format: biochemical
T1 construct: purchased Calbiochem
T1 sequence (P08246 30-267): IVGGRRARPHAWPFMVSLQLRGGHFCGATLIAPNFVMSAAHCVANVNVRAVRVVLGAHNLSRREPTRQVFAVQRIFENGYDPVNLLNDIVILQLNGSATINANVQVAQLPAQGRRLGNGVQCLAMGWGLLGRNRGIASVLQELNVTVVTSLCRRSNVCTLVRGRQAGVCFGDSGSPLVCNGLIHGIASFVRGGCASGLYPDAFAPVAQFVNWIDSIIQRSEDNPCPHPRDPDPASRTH
Procedure: Compounds were dissolved in 100% DMSO at 5 mM stock concentrations. […] HNE inhibition assays were performed in black flat-bottom 96-well microtiter plates. Briefly, a solution containing 200 mM Tris–HCl, pH 7.5, 0.01% bovine serum albumin, 0.05% Tween®-20, and 20 mU/mL of HNE (Calbiochem) was added to wells containing different concentrations of each compound. The reaction was initiated by addition of 25 μM elastase substrate (N-methylsuccinyl-Ala-Ala-Pro-Val-7-amino-4-methylcoumarin, Calbiochem) in a final reaction volume of 100 μL/well. Kinetic measurements were obtained every 30 s for 10 min at 25°C using a Fluoroskan Ascent FL fluorescence microplate reader (Thermo Electron, MA) with excitation and emission wavelengths of 355 and 460 nm, respectively. For all compounds tested, the concentration of inhibitor that caused 50% inhibition of the enzymatic reaction (IC50) was calculated by plotting % inhibition vs. logarithm of inhibitor concentration (at least six points).

[2] = target: T1, HNE (human neutrophil elastase); assay: Persistence of HNE inhibition over extended period of time (16 h); format: biochemical; conditions: monitored during 16 h in the presence of 10 μM inhibitor
Description: The relatively high enzymatic stability of HNE allowed us to evaluate reversibility of the enzyme inhibition over time.

[3] = Spontaneous hydrolysis (chemical stability) in aqueous phosphate buffer; format: physicochemical; conditions: for half-life: phosphate buffer, pH 7.3, 0.05 M phosphate buffer, read-out: t1/2 for the spontaneous hydrolysis (converted); for half-life / t1/2 for the spontaneous hydrolysis: pH 7.3, 25°C; for t1/2 for the spontaneous hydrolysis: 0.05 M phosphate buffer
Procedure: Spontaneous hydrolysis of selected derivatives was evaluated at 25°C in 0.05 M phosphate buffer, pH 7.3. Kinetics of compound hydrolysis was monitored by measuring changes in absorbance spectra over time using a SpectraMax ABS Plus microplate spectrophotometer (Molecular Devices, Sunnyvale, CA). Absorbance (At) at the characteristic absorption maxima of each compound was monitored over time until no further absorbance decreases occurred (A∞). Using these measurements, we created semilogarithmic plots of log(At-A∞) vs. time, and k′ values were determined from the slopes of these plots. Half-conversion times were calculated using t1/2 = 0.693/k′.
Spontaneous hydrolysis rates of the inhibitors were measured in phosphate buffer at pH 7.3 and 25°C.

[4] = mean ± SD of three independent experiments, read-out: IC50 (HNE inhibitory activity)
[5] = restated in Table 5 beside docking geometry, read-out: IC50

Row | SMILES | IC50 [1, 4] | Remaining HNE activity [2] [%] | melting point [°C] | half-life [3] [h] | IC50 [1, 5] [nM] | t1/2 for the spontaneous hydrolysis [3] [h] | Chemical stability in aqueous buffer ([3]; data not shown)
1 | CC(C)(C)C(=O)Oc1ccc(S(=O)(=O)n2nc(C#N)c3ccccc32)cc1 [Compound 3d, 4-[(3-Cyano-1H-indazol-1-yl)sulfonyl]phenyl pivalate] | 76 ± 11 nM | 4.3 ± 0.3 | 155 to 158 | 6.1 | – | – | –
2 | Cc1cccc(C(=O)Nc2nn(S(=O)(=O)c3ccc(OC(=O)C(C)(C)C)cc3)c3ccccc23)c1 [Compound 4, 4-{[3-(3-Methylbenzamido)-1H-indazol-1-yl]sulfonyl}phenyl pivalate] | 62 ± 12 nM | 8.6 ± 1.7 | – | 6.4 | – | – | –
3 | CC(C)(C)C(=O)Oc1ccc(S(=O)(=O)n2cc(-c3ccccc3)c(=O)o2)cc1 [Compound 11, 4-[(5-Oxo-4-phenylisoxazol-2(5H)-yl)sulfonyl]phenyl Pivalate] | 290 ± 40 nM | – | 166 to 168 | – | – | – | –
4 | CC(C)(C)C(=O)Oc1ccc(S(=O)(=O)Nc2ccccc2C(=O)NCC(=O)O)cc1 [Sivelestat, reference compound] | – | 3.7 ± 0.1 | – | – | – | – | –
5 | CC(C)(C)C(=O)Oc1ccc(S(=O)(=O)n2nc(C(F)(F)F)c3cccnc32)cc1 [Compound 3k, 4-{[3-(Trifluoromethyl)-1H-pyrazolo[3,4-b]pyridin-1-yl]sulfonyl}phenyl pivalate] | 135 ± 37 nM | – | 135 to 138 | 1.3 | – | – | –
6 | CCOC(=O)c1nn(S(=O)(=O)c2ccc(OC(=O)C(C)(C)C)cc2)c2ccccc12 [Compound 3f, Ethyl 1-{[4-(pivaloyloxy)phenyl]sulfonyl}-1H-indazole-3-carboxylate] | < 100 nM and 15 nM | 5.9 ± 1.2 | 132 to 135 | > 9 | – | 10.5 | –
7 | CCOC(=O)c1nn(S(=O)(=O)c2ccc(OC(=O)C(C)(C)C)cc2)c2ccc([N+](=O)[O-])cc12 [Compound 3g, Ethyl 5-nitro-1-{[4-(pivaloyloxy)phenyl]sulfonyl}-1H-indazole-3-carboxylate] | 23 ± 10 nM | 20.1 ± 1.6 | 185 to 188 | 1.8 | – | – | –
8 | Cc1noc(-c2cn(S(=O)(=O)c3ccc(OC(=O)C(C)(C)C)cc3)c3ncccc23)n1 [Compound 3j, 4-{[3-(3-Methyl-1,2,4-oxadiazol-5-yl)-1H-pyrrolo[2,3-b]pyridin-1-yl]sulfonyl}phenyl pivalate] | 43 ± 14 nM | 26.2 ± 3.4 | 164 to 167 | 2.5 | – | – | –
9 | Cc1c(-c2ccccc2)c(=O)on1S(=O)(=O)c1ccc(OC(=O)C(C)(C)C)cc1 [G, reference compound] | – | – | – | 5.8 | – | – | excellent chemical stability in aqueous buffer
10 | CC(C)(C)C(=O)Oc1ccc(S(=O)(=O)n2cc(C#N)c3cccnc32)cc1 [Compound 3i, 4-[(3-Cyano-1H-pyrrolo[2,3-b]pyridin-1-yl]sulfonyl)phenyl pivalate] | 55 ± 12 nM | 2.6 ± 0.5 | 176 to 179 | 1.8 | – | – | –
11 | CC(C)(C)C(=O)Oc1ccc(S(=O)(=O)n2nc(C#N)c3cc([N+](=O)[O-])ccc32)cc1 [Compound 3e, 4-[(3-Cyano-5-nitro-1H-indazol-1-yl)sulfonyl]phenyl pivalate] | 93 ± 27 nM | 41.7 ± 3.2 | 183 to 186 | 0.4 | – | – | –
12 | CC(C)(C)C(=O)Oc1ccc(S(=O)(=O)n2cc(C#N)c3ccccc32)cc1 [Compound 3c, 4-[(3-Cyano-1H-indol-1-yl)sulfonyl]phenyl pivalate] | < 100 nM and 49 nM | 2.0 ± 0.4 | 133 to 136 | > 9 | – | 14.4 | –
13 | CCOC(=O)c1cn(S(=O)(=O)c2ccc(OC(=O)C(C)(C)C)cc2)c2ccc([N+](=O)[O-])cc12 [Compound 3b, Ethyl 5-nitro-1-{[4-(pivaloyloxy)pheny]sulfonyl}-1H-indole-3-carboxylate] | 25 ± 8 nM | 20.5 ± 1.7 | 170 to 173 | 6.1 | – | – | –
14 | CCOC(=O)c1cn(S(=O)(=O)c2ccc(OC(=O)C(C)(C)C)cc2)c2ccccc12 [Compound 3a, Ethyl 1-{[4-(pivaloyloxy)phenyl]sulfonyl}-1H-indole-3-carboxylate] | < 100 nM and 30 nM | 5.5 ± 1.8 | 118 to 121 | > 9 | 30 | 9.6 | –
15 | CC(C)(C)C(=O)Oc1ccc(S(=O)(=O)n2nc(C#N)c3cccnc32)cc1 [Compound 3l, 4-[(3-Cyano-1H-pyrazolo[3,4-b]pyridin-1-yl)sulfonyl]phenyl pivalate] | 66 ± 9 nM | 4.5 ± 1.7 | 166 to 169 | 3.5 | – | – | –

Second part, led by results:

Row | IC50 [1, 4] | Remaining HNE activity [2] [%] | melting point [°C] | half-life [3] [h] | IC50 [1, 5] [nM] | t1/2 for the spontaneous hydrolysis [3] [h] | SMILES | Chemical stability in aqueous buffer ([3]; data not shown)
16 | 78 ± 18 nM | 9.2 ± 2.5 | 121 to 123 | 1.9 | – | – | CC(C)(C)C(=O)Oc1ccc(S(=O)(=O)n2nc(C3CC3)c(=O)c3ccccc32)cc1 [Compound 9b, 4-[(3-Cyclopropyl-4-oxocinnolin-1(4H)-yl)sulfonyl]phenyl pivalate] | –
17 | 5200 ± 140 nM | – | 172 to 175 | 5.3 | 5200 | – | CCOC(=O)c1cn(C(=O)c2cccc(C)c2)c2ccc(NS(=O)(=O)c3ccc(OC(=O)C(C)(C)C)cc3)cc12 [Compound 7b, Ethyl 1-(3-methylbenzoyl)-5-{[4-(pivaloyloxy)phenyl]sulfonamido}-1H-indole-3-carboxylate] | –
18 | 19 ± 5 nM | 2.2 ± 0.1 | 116 to 119 | 2.1 | – | – | CC(C)(C)C(=O)Oc1ccc(S(=O)(=O)n2ncc(=O)c3ccccc32)cc1 [Compound 9a, 4-[(4-Oxocinnolin-1(4H)-yl)sulfonyl]phenyl pivalate] | –
19 | 460 ± 120 nM | – | 180 to 182 | 5.8 | 460 | – | CCOC(=O)c1nn(C(=O)c2cccc(C)c2)c2ccc(NS(=O)(=O)c3ccc(OC(=O)C(C)(C)C)cc3)cc12 [Compound 7e, Ethyl 1-(3-methylbenzoyl)-5-{[4-(pivaloyloxy)phenyl]sulfonamido}-1H-indazole-3-carboxylate] | –
20 | 394 ± 38 nM | – | 162 to 165 | 1.5 | – | – | Cn1nc(C#N)c2cc(NS(=O)(=O)c3ccc(OC(=O)C(C)(C)C)cc3)ccc21 [Compound 7c, 4-[N-(3-Cyano-1-methyl-1H-indazol-5-yl)sulfamoyl]phenyl pivalate] | –
21 | < 100 nM and 86 nM | 9.1 ± 2.5 | 130 to 133 | > 9 | 86 | 16.5 | CCOC(=O)c1nn(C)c2ccc(NS(=O)(=O)c3ccc(OC(=O)C(C)(C)C)cc3)cc12 [Compound 7d, Ethyl 1-methyl-5-{[4-(pivaloyloxy)phenyl]sulfonamido}-1H-indazole-3-carboxylate] | –
22 | 233 ± 76 nM | – | – | 6.8 | – | – | CCOC(=O)c1cn(C)c2ccc(NS(=O)(=O)c3ccc(OC(=O)C(C)(C)C)cc3)cc12 [Compound 7a, Ethyl 1-methyl-5-{[4-(pivaloyloxy)phenyl]sulfonamido}-1H-indole-3-carboxylate] | –

From paper PMC7491426 (Frontiers in Chemistry, 2020)
